Experimental data reported in patent publication US20250161312A1, “A METHOD FOR THE TREATMENT OF CHEMOTHERAPEUTIC DRUG-INDUCED NEPHROTOXICITY” (INSTITUT NATIONAL DE LA SANTÉ ET DE LA RECHERCHE MÉDICALE, priority 2022, published 2025).

Tests used:
[1] = tested on: mEERL tumors in C57B16/J mice; experiment: mEERL in vivo tumor model (HPV+ squamous carcinoma)
Method: FIG. 8. […] The arrow represents cisplatin and/or PBS injection. […] (E) Absolute tumor sizes in animals in the different groups.
We used a validated murine model of HPV+ oropharyngeal squamous cell carcinoma as previously described (noncommercial) (77). This model consists of oropharyngeal epithelial cells from C57Bl/6 male mice that stably express the HPV16 viral oncogenes E6 and E7, H-Ras, and luciferase (mEERL cells). mEERL cells were grown in a T75 flask until confluent, after which cells were trypsinized and harvested, washed 3 times with sterile PBS, and resuspended in 1 mL sterile PBS to the appropriate concentration. Mice were injected s.c. into the right flank with 20 μL solution containing either 1,000,000 mEERL cells or PBS (vehicle). The day of mEERL cell injection is indicated as day −14. Tumor volume was monitored using Vernier digital calipers.

[2] = tested on: RPTEC/hTERT cells; experiment: Cell viability assay (CellTiter-Glo); assay type: cell-based, human; conditions: cisplatin 50 μM, KW-6002 0.5-12.8 μM, 48 hours
Method: (§1) Cells were cultured in DMEM/F12 medium (Dulbecco's modified Eagle's medium and Ham's F12 medium, Thermo Fisher) supplemented with 1% penicillin/streptomycin, 5 pmol/L triiodo-L-thyronine, 10 ng/ml recombinant human epidermal growth factor, 3.5 μg/mL ascorbic acid, 5.0 μg/mL human transferrin, 5.0 μg/mL insulin, 25 ng/mL prostaglandin E1, 25 ng/ml hydrocortisone, 8.65 ng/mL sodium selenite, 0.1 mg/mL G418 and 1.2 g/L sodium bicarbonate (Sigma). Lewis lung carcinoma mouse LLC1 cells were cultured in DMEM glutamax (Thermo Fisher) containing 10% fetal calf serum and 1% penicillin/streptomycin. Cells were cultured at 37° C. in a humidified atmosphere of 5% CO2.
Viability was assessed using the CellTiter-Glo® Luminescent Cell Viability Assay (Promega) according to manufacturer's recommendations.

[3] = tested on: H1975 cells; experiment: γH2AX nuclear foci in H1975 cells; assay type: cell-based; conditions: 50 μM cisplatin, 10 nM KW6002, 6 hours, FIG. 7F
Method: (§2) FIG. 7. […] Caspase 3/-7 activity (n=3 independent experiments) (A) and the number of γH2AX nuclear foci (n=36-63 nuclei/group) (B) were determined. […] Results are expressed as the mean±SEM (n=3 independent experiments). (E) Tail moment was assessed by comet assay. A total of 50 cells per condition were analyzed. *** P<0.001; 1-way ANOVA followed by Tukey's post hoc test. […] (I) KW6002 increased yH2AX expression in tumors from mice of the LLC1 syngeneic model. Quantification of nuclear yH2AX expression.

[4] = tested on: LLC1 cells; experiment: Caspase 3/7 activity in LLC1 cells; assay type: cell-based, mouse
Method: as §2, §1
Apoptosis was assessed in RPTEC/hTERT and LLC1 cell lysates using the caspase-Glo 3/7 assay (Promega) according to manufacturer's recommendations.

CCn1c(=O)c2c(nc(/C=C/c3ccc(OC)c(OC)c3)n2C)n(CC)c1=O [KW-6002, 8-[(E)-2-(3,4-dimethoxyphenyl)vinyl]-1,3-diethyl-7-methyl-3,7-dihydro-1H-purine-2,6-dione]
cisplatin-induced pain hypersensitivity (von Frey) ([1]; FIG. 8D): alleviated cisplatin-induced pain hypersensitivity | tumor control by cisplatin (tumor size) ([1]; FIG. 8E): significantly potentiated tumor control by cisplatin | indicators of renal toxicity (KIM-1) induced by cisplatin ([1]; tumor-bearing mice, FIG. 8A): limited | expression of Tnf induced by cisplatin ([1]; tumor-bearing mice, FIG. 8B): limited | expression of I16 induced by cisplatin ([1]; tumor-bearing mice, FIG. 8C): limited | cisplatin-induced cell death [2]: reduced cisplatin-induced cell death in a concentration-dependent manner | cisplatin-induced cell death ([2]; listed as KW6002): concentration-dependently reduced cisplatin-induced cell death | DNA damage: yH2AX nuclear foci [3]: increased number of H2AX+ cells | apoptosis: caspase 3/-7 activity ([4]; 2 μM cisplatin, 10 Nm KW6002, 24 hours, FIG. 7A): even potentiated the efficacy of cisplatin | LLC1 sensitivity to cisplatin, including apoptosis and/or DNA damage ([4]; in vitro, data not shown): likely increases LLC1 sensitivity to cisplatin
